The text below walks through data of US20050070527A1, “Quinoxaline compounds” (priority 2003, published 2005).

What is called Ki is a dissociation constant, usually derived from enzyme kinetics or from competition with a known ligand. The term IC50 denotes the concentration at which inhibition is half-maximal.

Where two headings read alike, the source gives them in different places.

The target in assay [1] is T1, human histamine H4 receptor (Homo sapiens, UniProt Q9H3N8).
T1 construct: expressed in transfected cells; host or cells: SK-N-MC cells or COS7 cells, transiently transfected; membrane preparation
Kind of assay: Binding assay on recombinant human histamine H4 receptor (3H-histamine displacement). As to the method:
Binding Assay on Recombinant Human Histamine H4 Receptor
SK-N-MC cells or COS7 cells were transiently transfected with pH4R and grown in 150 cm^2 tissue culture dishes. Cells were washed with saline solution, scraped with a cell scraper and collected by centrifugation (1000 rpm, 5 min). Cell membranes were prepared by homogenization of the cell pellet in 20 mM Tris-HCl with a polytron tissue homogenizer for 10 s at high speed. Homogenate was centrifuged at 1000 rpm for 5 min at 4° C. The supernatant was then collected and centrifuged at 20,000× g for 25 min at 4° C. The final pellet was resuspended in 50 mM Tris-HCl. Cell membranes were incubated with ^3H-histamine (5-70 nM) in the presence or absence of excess histamine (10000 nM). Incubation occurred at room temperature for 45 min. Membranes were harvested by rapid filtration over Whatman GF/C filters and washed 4 times with ice-cold 50 mM Tris HCl. Filters were then dried, mixed with scintillant and counted for radioactivity. SK-N-MC or COS7 cells expressing human histamine H4 receptor were used to measure the affinity of binding of other compounds and their ability to displace ^3H-ligand binding by incubating the above-described reaction in the presence of various concentrations of inhibitor or compound to be tested.

In assay [2] the test system is Mast cells. Nature of the assay: Mast cell chemotaxis assay (histamine-induced, transwell). The assay is classed as cell-based. Particulars: 10 μM histamine, 3 h at 37° C. As to the method:
Mast Cell Chemotaxis Assay
In addition, it is known that mast cell numbers increase in a number of inflammatory conditions. Some of this is due to chemotaxis of mast cells to the sites of inflammation. This chemotaxis to specific agents can be mimicked in vitro. Transwells (Costar, Cambridge, Mass.) of a pore size 8 μm were coated with 100 μL of 100 ng/mL human fibronectin (Sigma) for 2 h at room temperature. After removal of the fibronectin, 600 μL of RPMI with 5% BSA, in the presence of 10 μM histamine, was added to the bottom chamber. To test the various histamine receptor (HR) antagonists, 10 μM and/or 1 μM solutions of the test compounds were added to the top and bottom chambers. Mast cells (2×10^5/well) were added to the top chamber. The plates were incubated for 3 h at 37° C. Transwells were removed and the cells in the bottom chamber were counted for sixty seconds using a flow cytometer.

Assay [3] has as its system human eosinophils. Particulars: cited from earlier work.
For assay [4], the system named is human eosinophils. Kind of assay: Inhibition of eosinophil shape change (gated autofluorescence forward scatter assay). The conditions noted are these: for effect on histamine-induced shape change: antagonist, human eosinophils; for Fold Change (eosinophil shape change): 10 μM antagonist.
Where [5] appears, read: Table 1, competition with 3H-histamine, Cheng-Prusoff, KD 5 nM, ligand 5 nM, read-out: Ki.

T1 sequence (Q9H3N8 whole entry): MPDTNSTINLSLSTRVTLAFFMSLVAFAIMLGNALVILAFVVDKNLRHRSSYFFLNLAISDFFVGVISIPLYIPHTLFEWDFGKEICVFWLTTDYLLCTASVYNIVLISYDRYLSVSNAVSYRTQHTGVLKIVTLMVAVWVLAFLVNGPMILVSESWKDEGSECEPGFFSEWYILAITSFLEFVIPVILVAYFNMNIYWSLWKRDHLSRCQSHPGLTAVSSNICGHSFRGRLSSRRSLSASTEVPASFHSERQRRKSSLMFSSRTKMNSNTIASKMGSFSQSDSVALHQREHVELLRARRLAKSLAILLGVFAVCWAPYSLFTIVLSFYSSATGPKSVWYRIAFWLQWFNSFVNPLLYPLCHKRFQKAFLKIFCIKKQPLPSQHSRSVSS

Consider `Cc1cccc2nc(N3CCNC(C)C3)c(=O)[nH]c12` (stereo not drawn) [Example 5, 8-Methyl-3-(3-methyl-piperazin-1-yl)-1H-quinoxalin-2-one], for which the Ki in assay [1] (read-out: Ki) was determined as 40 nM. `CN1CCN(c2nc3cc(C(F)(F)F)ccc3[nH]c2=O)CC1` [Example 12, 3-(4-Methyl-piperazin-1-yl)-6-trifluoromethyl-1H-quinoxalin-2-one]: the Ki in assay [1] (setting [5]) is 24 nM. For the same compound, the “% Inh” value in assay [2] (HR antagonist 1 μM) is reported as 99%. With “6-Chloro-3-(3-methyl-piperazin-1-yl)-1H-quinoxalin-2-one; and 7-Chloro-3-(3-methyl-piperazin-1-yl)-1H-quinoxalin-2-one [Example 27]”, in assay [1] (read-out: Ki), the Ki came out at 467 nM.

For `NCCc1c[nH]cn1` [histamine], in assay [3], the “activation of calcium mobilization” value is recorded as “activate calcium mobilization”. Also, the “shape change in eosinophils (agonist effect)” value in assay [4] (histamine alone, 0.01-10 μM) is listed as “induces a dose-dependent shape change”. For the compound `CN1CCN(c2nc3cc(Cl)ccc3[nH]c2=O)CC1` [Example 9, 6-Chloro-3-(4-methyl-piperazin-1-yl)-1H-quinoxalin-2-one], in assay [1] (read-out: Ki), the inhibition constant Ki was 84 nM.

In the case of `CN1CCN(c2nc3ccc(C(F)(F)F)cc3[nH]c2=O)CC1` [Example 13, 3-(4-Methyl-piperazin-1-yl)-7-trifluoromethyl-1H-quinoxalin-2-one], the Ki in assay [1] (setting [5]) was 19 nM.

Regarding `CN1CCN(c2nc3cc(Cl)c(Cl)cc3[nH]c2=O)CC1` [Example 14, 6,7-Dichloro-3-(4-methyl-piperazin-1-yl)-1H-quinoxalin-2-one], the inhibitory constant (Ki) in assay [1] (setting [5]) stood at 32 nM. The figures for the “% Inh” value in assay [2] (HR antagonist 1 μM) and in assay [2] (HR antagonist 10 μM) were 71% and 80%, respectively. Turning to `CN1CCN(c2nc3ccc(F)c(F)c3[nH]c2=O)CC1` [Example 22, 7,8-Difluoro-3-(4-methyl-piperazin-1-yl)-1H-quinoxalin-2-one], in assay [1] (setting [5]), the Ki was 30 nM. On to `CC1CN(c2nc3ccccc3[nH]c2=O)CCN1` (stereo not drawn) [Example 6, 3-(3-Methyl-piperazin-1-yl)-1H-quinoxalin-2-one], for which the Ki in assay [1] (setting [5]) was 681 nM. For `CN(C)CCOC(c1ccccc1)c1ccccc1` [diphenhydramine], the “effect on histamine-induced shape change” value in assay [4] was “did not alter”. In addition, the “Fold Change (eosinophil shape change)” value in assay [4] (histamine 0 μM) is 1.00; in assay [4] (histamine 0.01 μM), 1.03; in assay [4] (histamine 0.1 μM), 1.18; in assay [4] (histamine 1 μM), 1.50; in assay [4] (histamine 10 μM), 1.63.

Regarding `CN1CCN(c2nc3cc(C(F)(F)F)cc(Cl)c3[nH]c2=O)CC1` [Example 23, 8-Chloro-3-(4-methyl-piperazin-1-yl)-6-trifluoromethyl-1H-quinoxalin-2-one], the Ki in assay [1] (setting [5]) stood at 166 nM.

On to `O=c1[nH]c2cc(Cl)c(Cl)cc2nc1N1CCNCC1` [Example 15, 6,7-Dichloro-3-piperazin-1-yl-1H-quinoxalin-2-one], for which, in assay [1] (read-out: Ki), the Ki amounted to 56 nM.

Consider “3-piperazin-1-yl-6-trifluoromethyl-1H-quinoxalin-2-one; and 3-piperazin-1-yl-7-trifluoromethyl-1H-quinoxalin-2-one [Example 24]”, for which the Ki in assay [1] (setting [5]) is 467 nM. For `CN1CCN(c2nc3ccc(Cl)cc3[nH]c2=O)CC1` [Example 10, 7-Chloro-3-(4-methyl-piperazin-1-yl)-1H-quinoxalin-2-one], in assay [1] (read-out: Ki), the Ki is 31 nM.

For `CN1CCN(c2nc3cc(F)c(F)cc3[nH]c2=O)CC1` [Example 17, 6,7-Difluoro-3-(4-methyl-piperazin-1-yl)-1H-quinoxalin-2-one], the inhibition constant Ki in assay [1] (setting [5]) was 74 nM.

`CN1CCN(c2nc3cc(F)ccc3[nH]c2=O)CC1` [Example 21, 6-Fluoro-3-(4-methyl-piperazin-1-yl)-1H-quinoxalin-2-one]: in assay [1] (read-out: Ki), the inhibition constant Ki amounted to 39 nM. For `S=C(NC1CCCCC1)N1CCC(c2cnc[nH]2)CC1` [thioperamide], the “blockade of calcium mobilization responses” value in assay [3] (responses to histamine and R-α-methylhistamine) was “blocked”. On to `Cc1cccc2nc(N3CCNCC3)c(=O)[nH]c12` [Example 2, 8-Methyl-3-piperazin-1-yl-1H-quinoxalin-2-one], for which the Ki in assay [1] (read-out: Ki) came out at 16 nM. For the same compound, the “% Inh” value in assay [2] (HR antagonist 1 μM) is on record as 50%. In the case of “6-Chloro-3-(4-methyl-piperazin-1-yl)-1H-quinoxalin-2-one; and 7-Chloro-3-(4-methyl-piperazin-1-yl)-1H-quinoxalin-2-one [Example 8]”, the Ki in assay [1] (read-out: Ki) worked out at 21 nM. Consider `Cc1cccc2nc(N3CCN(CCO)CC3)c(=O)[nH]c12` [Example 7, 3-[4-(2-Hydroxy-ethyl)-piperazin-1-yl]-8-methyl-1H-quinoxalin-2-one], for which the Ki in assay [1] (setting [5]) came out at 852 nM. On to `CNC(=C[N+](=O)[O-])NCCSCc1ccc(CN(C)C)o1` [ranatidine], for which the “effect on histamine-induced shape change” value in assay [4] was “did not alter”. In addition, the “Fold Change (eosinophil shape change)” value in assay [4] (histamine 0 μM) amounted to 1.00; in assay [4] (histamine 0.01 μM) it was 1.04; in assay [4] (histamine 0.1 μM) it was 1.21; in assay [4] (histamine 1 μM) it was 1.49; in assay [4] (histamine 10 μM) it was 1.64.

On to `CN1CCCN(c2nc3cc(Cl)c(Cl)cc3[nH]c2=O)CC1` [Example 16, 6,7-Dichloro-3-(4-methyl-[1,4]diazepan-1-yl)-1H-quinoxalin-2-one], for which the Ki in assay [1] (setting [5]) is 1610 nM. With “7-Chloro-3-piperazin-1-yl-1H-quinoxalin-2-one; and 6-Chloro-3-piperazin-1-yl-1H-quinoxalin-2-one [Example 26]”, the Ki in assay [1] (read-out: Ki) worked out at 152 nM.

On to `O=c1[nH]c2c([N+](=O)[O-])cccc2nc1N1CCNCC1` [Example 3, 8-Nitro-3-piperazin-1-yl-1H-quinoxalin-2-one], for which the Ki in assay [1] (setting [5]) is 640 nM.

For `Cc1cc2nc(N3CCN(C)CC3)c(=O)[nH]c2cc1Cl` [Example 19, 7-Chloro-6-methyl-3-(4-methyl-piperazin-1-yl)-1H-quinoxalin-2-one], in assay [1] (setting [5]), the inhibition constant Ki came out at 93 nM. Still for that read-out and setting: then “3-(3-Methyl-piperazin-1-yl)-6-trifluoromethyl-1H-quinoxalin-2-one; and 3-(3-Methyl-piperazin-1-yl)-7-trifluoromethyl-1H-qui noxalin-2-one [Example 28]”, with 743 nM. For the compound “6-Chloro-7-fluoro-3-(4-methyl-piperazin-1-yl)-1H-quinoxalin-2-one; and 7-Chloro-6-fluoro-3-(4-methyl-piperazin-1-yl)-1H-quinoxalin-2-one [Example 25]”, the Ki in assay [1] (setting [5]) came out at 12 nM; in assay [1] (repeated in the mast cell chemotaxis table, read-out: Binding Assay Ki), 12 nM. For the same compound, the “% Inh” value was found to be 81% in assay [2] (HR antagonist 1 μM) and 79% in assay [2] (HR antagonist 10 μM).

As for `Cc1cccc2nc(N3CCN(C)CC3)c(=O)[nH]c12` [Example 1, 8-Methyl-3-(4-methyl-piperazin-1-yl)-1H-quinoxalin-2-one], the Ki in assay [1] (read-out: Ki) worked out at 6 nM. Also, in assay [2] (HR antagonist 1 μM), the “% Inh” value is 76%. Consider `C[C@@H](N)Cc1c[nH]cn1` [R-α-methylhistamine], for which, in assay [3], the “activation of calcium mobilization” value is “activate calcium mobilization” and the “potency relative to histamine in calcium mobilization” value is on record as “significantly less potent than histamine”. For the compound “3-(4-Methyl-piperazin-1-yl)-6-trifluoromethyl-1H-qui noxalin-2-one; and 3-(4-Methyl-piperazin-1-yl)-7-trifluoromethyl-1H-quinoxalin-2-one [Example 11]”, the Ki in assay [1] (setting [5]) turned out to be 11 nM. Take `O=c1[nH]c2c(F)c(F)ccc2nc1N1CCNCC1` [Example 4, 7,8-Difluoro-3-piperazin-1-yl-1H-quinoxalin-2-one]: in assay [1] (setting [5]), the Ki amounted to 430 nM.

For `CN1CCN(C(=O)c2cc3cc(Cl)ccc3[nH]2)CC1` [(5-chloro-1H-indol-2-yl)-(4-methyl-piperazin-1-yl)-methanone], the half-maximal inhibitory concentration (IC50) in assay [4] (Homo sapiens, Eosinophil, read-out: IC50, inhibition of histamine-induced eosinophil shape change) is 270 nM. In the case of “7-Chloro-6-methyl-3-(4-methyl-piperazin-1-yl)-1H-quinoxalin-2-one; and 6-Chloro-7-methyl-3-(4-methyl-piperazin-1-yl)-1H-quinoxalin-2-one [Example 18]”, the Ki in assay [1] (setting [5]) was 112 nM. Regarding `Cc1cc2[nH]c(=O)c(N3CCN(C)CC3)nc2cc1Cl` [Example 20, 6-Chloro-7-methyl-3-(4-methyl-piperazin-1-yl)-1H-quinoxalin-2-one], the inhibitory constant (Ki) in assay [1] (setting [5]) was 83 nM.
